Data as given in patent US8829193B2, “PIM kinase inhibitors and methods of their use” (Novartis AG, priority 2008, dated 2014).

How the values were obtained:
Type in all cases: biochemical
[1] = target: Pim2 kinase (Homo sapiens (Human), UniProt Q9P1W9); test: Pim2 ATP depletion assay; settings: 4 μM ATP, 10 μM BAD peptide, 5 nM PIM2
Protocol: (§1) The activity of PIM2 is measured using a luciferase-luciferin based ATP detection reagent to quantify ATP depletion resulting from kinase-catalyzed phosphoryl transfer to a peptide substrate. Compounds to be tested are dissolved in 100% DMSO and directly distributed into white 384-well plates at 0.5 piper well. […] After 15 minutes, 10 μl of 8 μM ATP in assay buffer is added. Final assay concentrations are 5 nM PIM2, 4 μM ATP, 10 μM BAD peptide and 2.5% DMSO. The reaction is performed until approximately 50% of the ATP is depleted, then stopped with the addition of 20 μl KinaseGlo Plus (Promega Corporation) solution. The stopped reaction is incubated for 10 minutes and the remaining ATP detected via luminescence on the Victor2 (Perkin Elmer).

[2] = target: Pim3 kinase (Homo sapiens (Human), UniProt Q86V86); test: Pim3 ATP depletion assay; settings: 40 μM ATP, 100 μM BAD peptide
Protocol: as §1, with “of PIM3” for “of PIM2”, “of 80” for “of 8”, “nM PIM1, 40” for “nM PIM2, 4”, “ATP, 100” for “ATP, 10”, “stopped by” for “stopped with”

[3] = target: Pim1 kinase (Homo sapiens (Human), UniProt P11309); test: Pim1 ATP depletion assay; settings: 20 μM ATP, 40 μM BAD peptide, 2.5 nM PIM1
Sequence of Pim1 kinase (P11309 whole entry): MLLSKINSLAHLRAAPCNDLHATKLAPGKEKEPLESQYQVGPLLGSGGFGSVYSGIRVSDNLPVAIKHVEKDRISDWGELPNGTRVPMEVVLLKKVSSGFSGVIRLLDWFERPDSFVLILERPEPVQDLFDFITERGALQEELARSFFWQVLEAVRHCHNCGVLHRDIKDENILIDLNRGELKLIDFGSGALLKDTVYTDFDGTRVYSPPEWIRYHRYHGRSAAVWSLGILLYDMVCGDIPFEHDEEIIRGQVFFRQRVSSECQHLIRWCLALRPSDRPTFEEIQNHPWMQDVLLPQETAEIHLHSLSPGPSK
Protocol: as §1, with “of PIM1” for “of PIM2”, “0.5 μl per” for “0.5 piper”, “of 40” for “of 8”, “are 2.5” for “are 5”, “nM PIM1, 20” for “nM PIM2, 4”, “ATP, 40” for “ATP, 10”

Sequence of Pim2 kinase (Q9P1W9 whole entry): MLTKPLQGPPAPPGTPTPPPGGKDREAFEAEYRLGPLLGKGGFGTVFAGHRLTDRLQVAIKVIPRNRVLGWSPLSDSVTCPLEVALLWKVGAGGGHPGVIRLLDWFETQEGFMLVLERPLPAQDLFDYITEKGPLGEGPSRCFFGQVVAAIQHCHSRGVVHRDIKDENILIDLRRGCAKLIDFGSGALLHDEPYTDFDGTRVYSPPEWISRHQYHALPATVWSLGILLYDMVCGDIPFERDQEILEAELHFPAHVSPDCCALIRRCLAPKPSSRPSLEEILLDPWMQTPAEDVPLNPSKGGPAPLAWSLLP

Row | Structure (SMILES) | IC50 [1] | IC50 [2] | IC50 [3]
1 | COc1ccc(F)c(-c2nc(C(=O)Nc3cnccc3[C@@H]3C[C@H](C)C[C@H](N)C3)cs2)c1F (stereo in doubt) [Example 52, 2-(2,6-Difluoro-3-methoxy-phenyl)-thiazole-4-carboxylic acid [4-(3-amino-5-methyl-cyclohexyl)-pyridin-3-yl]-amide] | 4 nM | 2 nM | 1 nM
2 | CCOc1ccc(F)c(-c2nc(C(=O)Nc3cnccc3[C@@H]3C[C@H](C)C[C@H](N)C3)cs2)c1F (stereo in doubt) [Example 54, 2-(3-Ethoxy-2,6-difluoro-phenyl)-thiazole-4-carboxylic acid [4-(3-amino-5-methyl-cyclohexyl)-pyridin-3-yl]-amide] | 9 nM | 3 nM | 1 nM
3 | C[C@@H]1C[C@H](N)C[C@H](c2ccncc2NC(=O)c2csc(-c3c(F)ccc(Cl)c3F)n2)C1 (stereo in doubt) [Example 56, 2-(3-Chloro-2,6-difluoro-phenyl)-thiazole-4-carboxylic acid [4-(3-amino-5-methyl-cyclohexyl)-pyridin-3-yl]-amide] | 12 nM | 3 nM | 1 nM
4 | N[C@@H]1CN(c2ccncc2NC(=O)c2csc(-c3c(F)cccc3F)n2)CC[C@H]1F [Example 3, N-(4-((3R,4R)-3-amino-4-fluoropiperidin-1-yl)pyridin-3-yl)-2-(2,6-difluorophenyl)thiazole-4-carboxamide] | 23 nM | 5 nM | 2 nM
5 | N[C@H]1C[C@@H](O)CN(c2ccncc2NC(=O)c2csc(-c3c(F)cccc3F)n2)C1 [Example 5, N-(4-((3S,5R)-3-amino-5-hydroxypiperidin-1-yl)pyridin-3-yl)-2-(2,6-difluorophenyl)thiazole-4-carboxamide] | 77 nM | 13 nM | 15 nM
6 | COC1CCN(c2ccncc2NC(=O)c2csc(-c3c(F)cccc3F)n2)CC1N (centres unmarked) [Example 7, N-(4-(3-amino-4-methoxypiperidin-1-yl)pyridin-3-yl)-2-(2,6-difluorophenyl)thiazole-4-carboxamide] | 243 nM | 18 nM | 5 nM
7 | N[C@H]1C[C@H](OC(=O)c2ccccc2)CN(c2ccncc2NC(=O)c2csc(-c3c(F)cccc3F)n2)C1 [Example 10, (3S,5S)-5-amino-1-(3-(2-(2,6-difluorophenyl)thiazole-4-carboxamido)pyridin-4-yl)piperidin-3-yl benzoate] | 479 nM | 322 nM | 2220 nM
8 | NC1CC(CO)CN(c2ccncc2NC(=O)c2csc(-c3c(F)cccc3F)n2)C1 (centres unmarked) [Example 13, N-(4-(3-amino-5-(hydroxymethyl)piperidin-1-yl)pyridin-3-yl)-2-(2,6-difluorophenyl)thiazole-4-carboxamide] | 58 nM | 24 nM | 14 nM
9 | N[C@H]1C[C@H](F)CN(c2ccncc2NC(=O)c2csc(-c3c(F)cccc3F)n2)C1 [Example 17, N-(4-((3S,5S)-3-amino-5-fluoropiperidin-1-yl)pyridin-3-yl)-2-(2,6-difluorophenyl)thiazole-4-carboxamide] | 70 nM | 8 nM | 4 nM
10 | CO[C@H]1C[C@H](N)CN(c2ccncc2NC(=O)c2csc(-c3c(F)cccc3F)n2)C1 [Example 22, N-(4-((3S,5S)-3-amino-5-methoxypiperidin-1-yl)pyridin-3-yl)-2-(2,6-difluorophenyl)thiazole-4-carboxamide] | 378 nM | 60 nM | 129 nM
11 | N[C@@H]1CN(c2ccncc2NC(=O)c2csc(-c3c(F)cccc3F)n2)CC(F)(F)C1 [Example 24, (S)-N-(4-(5-amino-3,3-difluoropiperidin-1-yl)pyridin-3-yl)-2-(2,6-difluoropheenyl)thiazole-4-carboxamide] | 38 nM | 4 nM | 2 nM
12 | Nc1sc(-c2c(F)cccc2F)nc1C(=O)Nc1cnccc1N1CCC(F)CC1 [Example 30, 5-amino-2-(2,6-difluorophenyl)-N-(4-(4-fluoropiperidin-1-yl)pyridin-3-yl)thiazole-4-carboxamide] | 55 nM | 3 nM | 1 nM
13 | C[C@@H]1C[C@H](O)C[C@H](c2ccncc2NC(=O)c2csc(-c3c(F)cccc3F)n2)C1 [Example 31, 2-(2,6-difluorophenyl)-N-(4-((1R,3S,5S)-3-hydroxy-5-methylcyclohexyl)pyridin-3-yl)thiazole-4-carboxamide] | 90 nM | 8 nM | 2 nM

The remaining compounds from weak to strong by IC50 [1], led by results:

Row | IC50 [1] | IC50 [2] | IC50 [3] | Structure (SMILES)
14 | 1500 nM | 91 nM | 69 nM | N[C@H]1C[C@H](O)CN(c2ccncc2NC(=O)c2csc(-c3c(F)cccc3F)n2)C1 [Example 9, N-(4-((3S,5S)-3-amino-5-hyydroxypiperidin-1-yl)pyridin-3-yl)-2-(2,6-difluorophenyl)thiazole-4-carboxamide]
15 | 208 nM | 45 nM | 57 nM | N[C@H]1CCCN(c2ccncc2NC(=O)c2csc(C3CCCCC3)n2)C1 [Example 12, (S)-N-(4-(3-aminopiperidin-1-yl)pyridin-3-yl)-2-cyclohexylthiazole-4-carboxamide]
16 | 72 nM | 24 nM | 6 nM | N[C@@H]1C[C@@H](C(F)(F)F)CN(c2ccncc2NC(=O)c2csc(-c3c(F)cccc3F)n2)C1 [Example 26, N-(4-((3R,5R)-3-amino-5-(trifluoromethyl)piperidin-1-yl)pyridin-3-yl)-2-(2,6-difluorophenyl)thiazole-4-carboxamide]
17 | 54 nM | 12 nM | 5 nM | NC1CN(c2ccncc2NC(=O)c2csc(-c3c(F)cccc3F)n2)CCC1Cl (centres unmarked) [Example 18, N-(4-(3-amino-4-chloropiperidin-1-yl)pyridin-3-yl)-2-(2,6-difluorophenyl)thiazole-4-carboxamide]
18 | 47 nM | 18 nM |  | C[C@H]1C[C@@H](c2ccncc2NC(=O)c2csc(-c3c(F)cccc3F)n2)C[C@@H](N)[C@H]1F (racemic) [Example 58, N-(4-((+/−)-3-amino-4-fluoro-5-methylcyclohexyl)pyridin-3-yl)-2-(2,6-difluorophenyl)thiazole-4-carboxamide]
19 | 21 nM | 20 nM | 11 nM | NC1CC(C(F)(F)F)CN(c2ccncc2NC(=O)c2csc(C3CCCCC3)n2)C1 (centres unmarked) [Example 21, N-(4-(3-amino-5-(trifluoromethyl)piperidin-1-yl)pyridin-3-yl)-2-cyclohexylthiazole-4-carboxamide]
20 | 18 nM | 16 nM | 12 nM | CC1CC(N)CN(c2ccncc2NC(=O)c2csc(C3CCCCC3)n2)C1 (centres unmarked) [Example 20, N-(4-(3-amino-5-methylpiperidin-1-yl)pyridin-3-yl)-2-cyclohexylthiazole-4-carboxamide]
21 | 15 nM | 5 nM | 3 nM | C[C@@H]1C[C@H](N)C[C@H](c2ccncc2NC(=O)c2csc(-c3c(F)ccc(F)c3F)n2)C1 (stereo in doubt) [Example 55, 2-(2,3,6-Trifluoro-phenyl)-thiazole-4-carboxylic acid [4-(3-amino-5-methyl-cyclohexyl)-pyridin-3-yl]-amide]
22 | 5 nM | 4 nM | 1 nM | C[C@@H]1C[C@H](O)C[C@H](c2ccncc2NC(=O)c2nc(-c3c(F)cccc3F)sc2N)C1 [Example 32, 5-amino-2-(2,6-difluorophenyl)-N-(4-((1R,3S,5S)-3-hydroxy-5-methylcyclohexyl)pyridin-3-yl)thiazole-4-carboxamide]
23 | 4 nM | 2 nM | 1 nM | C[C@@H]1C[C@H](N)C[C@H](c2ccncc2NC(=O)c2csc(-c3c(F)cc(O)cc3F)n2)C1 (stereo in doubt) [Example 57, 2-(2,6-Difluoro-4-hydroxy-phenyl)-thiazole-4-carboxylic acid [4-(3-amino-5-methyl-cyclohexyl)-pyridin-3-yl]-amide]
24 | 3 nM | 3 nM | 1 nM | CC[C@@H]1C[C@H](N)CN(c2ccncc2NC(=O)c2csc(-c3c(F)cccc3F)n2)C1 [Example 25, N-(4-((3S,5R)-3-amino-5-ethylpiperidin-1-yl)pyridin-3-yl)-2-(2,6-difluorophenyl)thiazole-4-carboxamide]
